Target: Collagenase 3 (Homo sapiens) (UniProt P45452)
Experiment: Inhibition of human matrix metalloprotease-13 at 20 nM

Inhibition effect | SMILES
0.942 | COC(=O)[C@@H](NS(=O)(=O)c1ccc(-c2ccccc2OC)cc1)C(C)C
0.939 | COC(=O)[C@@H](NS(=O)(=O)c1ccc(-c2cccc(OC)c2)cc1)C(C)C
0.919 | COC(=O)[C@@H](NS(=O)(=O)c1ccc(-c2cccc(F)c2)cc1)C(C)C
0.935 | COC(=O)[C@@H](NS(=O)(=O)c1ccc(-c2ccc(OC)cc2)cc1)C(C)C
0.938 | COc1ccc(-c2ccc(S(=O)(=O)N[C@H](C(=O)O)C(C)C)cc2)cc1
0.922 | COC(=O)[C@@H](NS(=O)(=O)c1ccc(-c2ccccc2F)cc1)C(C)C
0.883 | COC(=O)[C@@H](NS(=O)(=O)c1ccc(-c2ccc([N+](=O)[O-])cc2)cc1)C(C)C
0.91 | COC(=O)[C@@H](NS(=O)(=O)c1ccc(-c2ccc(F)cc2)cc1)C(C)C
0.897 | CC(C)[C@H](NS(=O)(=O)c1ccc(-c2ccc([N+](=O)[O-])cc2)cc1)C(=O)O

SMILES | Inhibition effect
CC(C)[C@H](NS(=O)(=O)c1ccc(-c2ccc(F)cc2)cc1)C(=O)O | 0.918

Source: ChEMBL document CHEMBL1136087, “Synthesis of radiolabeled biphenylsulfonamide matrix metalloproteinase inhibitors as new potential PET cancer imaging agents” (Bioorg Med Chem Lett, 2003)
